Results from ChEMBL document CHEMBL1159222, “Varacin and three new marine antimicrobial polysulfides from the far-eastern ascidian Polycitor sp” (1995).

What was measured:
Type in all cases: functional
Conditions in all cases: read-out: IZ
Candida albicans [1] = test: Antifungal activity against Candida albicans at 10 ug
Candida albicans [2] = test: Antifungal activity against Candida albicans at 0.1 ug
Bacillus subtilis [3] = test: Antibacterial activity against Bacillus subtilis at 0.1 ug
Bacillus subtilis [4] = test: Antibacterial activity against Bacillus subtilis at 1 ug

SMILES: COc1cc(CCNC(C)=O)c2c(c1OC)SSS2 [VARACIN A ACETATE]
- zone of inhibition at 10 µg/disc (Candida albicans [1]): 20 mm

SMILES: COc1cc(CCNC(C)=O)c2c(c1OC)SSSSS2 [VARACIN ACETATE]
- zone of inhibition at 10 µg/disc (Candida albicans [1]): 20 mm

SMILES: COc1cc(CCNC(C)=O)c2c(c1OC)[S+]([O-])SS2 (configuration not stated) [VARACIN B ACETATE]
- zone of inhibition at 10 µg/disc (Candida albicans [1]): 20 mm

SMILES: COc1cc(CCNC(C)=O)c2c(c1OC)SS[S+]2[O-] (configuration not stated) [VARACIN C ACETATE]
- zone of inhibition at 10 µg/disc (Candida albicans [1]): 20 mm

SMILES: COc1cc(CCN)c2c(c1OC)SSSSS2 [VARACIN]
- zone of inhibition at 0.1 µg/disc (Candida albicans [2]): 20 mm
- zone of inhibition at 0.1 µg/disc (Bacillus subtilis [3]): 20 mm
- zone of inhibition at 1 µg/disc (Bacillus subtilis [4]): 20 mm
